Results on 13 molecules are retold here after ChEMBL document CHEMBL5291721, “A preclinical secondary pharmacology resource illuminates target-adverse drug reaction associations of marketed drugs” (Nat Commun, 2023).

Structures are written as SMILES.

The target of assay [1] is Voltage-gated inwardly rectifying potassium channel KCNH2 (Homo sapiens, UniProt Q12809). It is filed as functional. Particulars: read-out: AC50.
For assay [2], the target named is Sodium-dependent serotonin transporter (Homo sapiens, UniProt P31645).
Sodium-dependent serotonin transporter, sequence (P31645 whole entry): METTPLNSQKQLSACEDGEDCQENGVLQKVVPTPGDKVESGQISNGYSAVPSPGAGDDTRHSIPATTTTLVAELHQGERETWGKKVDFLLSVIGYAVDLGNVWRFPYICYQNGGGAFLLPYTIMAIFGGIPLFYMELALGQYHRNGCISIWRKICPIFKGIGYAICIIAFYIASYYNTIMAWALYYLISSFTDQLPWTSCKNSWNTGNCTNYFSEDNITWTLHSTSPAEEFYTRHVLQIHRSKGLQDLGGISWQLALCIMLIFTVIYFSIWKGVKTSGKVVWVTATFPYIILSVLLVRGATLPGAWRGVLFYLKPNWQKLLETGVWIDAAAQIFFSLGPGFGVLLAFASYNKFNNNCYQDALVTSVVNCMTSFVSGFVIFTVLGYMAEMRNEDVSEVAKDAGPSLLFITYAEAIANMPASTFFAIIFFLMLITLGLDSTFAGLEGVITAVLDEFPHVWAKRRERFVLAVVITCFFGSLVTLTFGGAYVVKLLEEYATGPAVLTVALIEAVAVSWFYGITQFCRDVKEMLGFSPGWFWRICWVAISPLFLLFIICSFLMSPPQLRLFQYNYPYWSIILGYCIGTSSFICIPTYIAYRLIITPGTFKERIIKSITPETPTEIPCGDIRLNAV
Assay [3] deals with T1, Muscarinic acetylcholine receptor M2 (Homo sapiens, UniProt P08172).
T1 sequence (P08172 whole entry): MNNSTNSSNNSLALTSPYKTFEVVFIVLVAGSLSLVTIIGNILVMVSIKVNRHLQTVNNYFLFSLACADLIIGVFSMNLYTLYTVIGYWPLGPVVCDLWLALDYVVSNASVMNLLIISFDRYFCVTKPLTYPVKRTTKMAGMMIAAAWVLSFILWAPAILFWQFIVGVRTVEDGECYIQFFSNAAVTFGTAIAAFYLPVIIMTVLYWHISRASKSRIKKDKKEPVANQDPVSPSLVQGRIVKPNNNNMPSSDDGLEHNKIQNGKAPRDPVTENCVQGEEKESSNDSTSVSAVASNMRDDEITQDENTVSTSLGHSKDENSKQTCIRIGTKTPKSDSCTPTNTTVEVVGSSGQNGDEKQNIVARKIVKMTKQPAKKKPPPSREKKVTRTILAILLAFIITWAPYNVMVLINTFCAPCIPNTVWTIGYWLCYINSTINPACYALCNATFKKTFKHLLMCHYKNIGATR

In assay [4] the target is 5-hydroxytryptamine receptor 2B (Homo sapiens, UniProt P41595). Type of assay: functional, cell-based.
5-hydroxytryptamine receptor 2B, sequence (P41595 whole entry): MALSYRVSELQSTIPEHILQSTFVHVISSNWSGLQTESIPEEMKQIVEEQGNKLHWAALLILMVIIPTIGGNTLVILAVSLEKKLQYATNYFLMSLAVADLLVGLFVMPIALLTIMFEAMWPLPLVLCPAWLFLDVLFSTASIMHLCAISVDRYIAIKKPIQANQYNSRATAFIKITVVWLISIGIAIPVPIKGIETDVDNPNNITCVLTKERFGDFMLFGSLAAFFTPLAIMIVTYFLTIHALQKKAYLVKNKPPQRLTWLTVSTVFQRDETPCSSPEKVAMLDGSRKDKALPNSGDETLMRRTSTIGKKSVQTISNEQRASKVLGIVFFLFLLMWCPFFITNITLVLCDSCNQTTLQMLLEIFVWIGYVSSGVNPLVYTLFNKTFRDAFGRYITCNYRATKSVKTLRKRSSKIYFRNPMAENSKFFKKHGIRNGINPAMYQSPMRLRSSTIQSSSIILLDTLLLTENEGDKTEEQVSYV
Assay [5] has as its target Prostaglandin G/H synthase 1 (Homo sapiens, UniProt P23219). It is filed as functional.
The target in assay [6] is 3',5'-cyclic-AMP phosphodiesterase 4A (Homo sapiens, UniProt P27815). It is filed as functional.
3',5'-cyclic-AMP phosphodiesterase 4A, sequence (P27815 whole entry): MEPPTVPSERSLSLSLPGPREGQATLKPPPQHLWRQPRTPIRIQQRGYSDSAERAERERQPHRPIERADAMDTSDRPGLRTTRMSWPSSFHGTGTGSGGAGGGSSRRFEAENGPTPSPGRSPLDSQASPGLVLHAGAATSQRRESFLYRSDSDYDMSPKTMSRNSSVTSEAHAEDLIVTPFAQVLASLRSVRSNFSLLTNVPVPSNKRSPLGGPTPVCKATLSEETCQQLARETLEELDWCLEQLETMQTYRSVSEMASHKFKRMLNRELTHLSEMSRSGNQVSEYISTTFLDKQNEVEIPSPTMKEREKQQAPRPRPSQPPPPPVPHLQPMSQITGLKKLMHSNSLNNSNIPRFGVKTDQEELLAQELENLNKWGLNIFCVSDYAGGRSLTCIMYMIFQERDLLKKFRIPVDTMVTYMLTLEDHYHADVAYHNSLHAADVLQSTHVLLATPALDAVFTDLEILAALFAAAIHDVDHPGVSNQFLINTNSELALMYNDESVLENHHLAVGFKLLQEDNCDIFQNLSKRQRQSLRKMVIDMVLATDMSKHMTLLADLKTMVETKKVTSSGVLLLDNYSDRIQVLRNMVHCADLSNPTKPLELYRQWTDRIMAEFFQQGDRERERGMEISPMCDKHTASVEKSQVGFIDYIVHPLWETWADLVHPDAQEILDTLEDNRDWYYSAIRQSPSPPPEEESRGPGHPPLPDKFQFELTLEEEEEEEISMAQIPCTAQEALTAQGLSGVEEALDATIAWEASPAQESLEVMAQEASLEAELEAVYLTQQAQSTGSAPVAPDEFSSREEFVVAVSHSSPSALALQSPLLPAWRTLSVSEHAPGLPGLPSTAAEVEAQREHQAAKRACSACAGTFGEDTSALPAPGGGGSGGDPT
Another assay deals with Prothrombin (Homo sapiens, UniProt P00734). It is filed as functional.
The target of assay [7] is T2, Alpha-2A adrenergic receptor (Homo sapiens, UniProt P08913).
T2 sequence (P08913 whole entry): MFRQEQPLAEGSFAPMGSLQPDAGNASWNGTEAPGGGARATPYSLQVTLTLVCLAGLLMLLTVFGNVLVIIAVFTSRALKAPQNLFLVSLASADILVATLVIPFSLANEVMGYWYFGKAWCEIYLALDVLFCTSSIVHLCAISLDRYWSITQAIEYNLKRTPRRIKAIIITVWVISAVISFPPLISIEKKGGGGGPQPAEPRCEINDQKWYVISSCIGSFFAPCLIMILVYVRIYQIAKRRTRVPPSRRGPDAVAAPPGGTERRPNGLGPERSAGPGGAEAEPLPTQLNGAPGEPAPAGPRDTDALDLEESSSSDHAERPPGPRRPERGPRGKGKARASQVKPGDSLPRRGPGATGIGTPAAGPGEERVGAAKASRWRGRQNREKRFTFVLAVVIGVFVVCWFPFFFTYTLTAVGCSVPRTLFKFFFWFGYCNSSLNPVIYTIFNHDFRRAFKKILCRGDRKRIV

The next assay concerns the target T3, Progesterone receptor (Homo sapiens, UniProt P06401).
T3 sequence (P06401 whole entry): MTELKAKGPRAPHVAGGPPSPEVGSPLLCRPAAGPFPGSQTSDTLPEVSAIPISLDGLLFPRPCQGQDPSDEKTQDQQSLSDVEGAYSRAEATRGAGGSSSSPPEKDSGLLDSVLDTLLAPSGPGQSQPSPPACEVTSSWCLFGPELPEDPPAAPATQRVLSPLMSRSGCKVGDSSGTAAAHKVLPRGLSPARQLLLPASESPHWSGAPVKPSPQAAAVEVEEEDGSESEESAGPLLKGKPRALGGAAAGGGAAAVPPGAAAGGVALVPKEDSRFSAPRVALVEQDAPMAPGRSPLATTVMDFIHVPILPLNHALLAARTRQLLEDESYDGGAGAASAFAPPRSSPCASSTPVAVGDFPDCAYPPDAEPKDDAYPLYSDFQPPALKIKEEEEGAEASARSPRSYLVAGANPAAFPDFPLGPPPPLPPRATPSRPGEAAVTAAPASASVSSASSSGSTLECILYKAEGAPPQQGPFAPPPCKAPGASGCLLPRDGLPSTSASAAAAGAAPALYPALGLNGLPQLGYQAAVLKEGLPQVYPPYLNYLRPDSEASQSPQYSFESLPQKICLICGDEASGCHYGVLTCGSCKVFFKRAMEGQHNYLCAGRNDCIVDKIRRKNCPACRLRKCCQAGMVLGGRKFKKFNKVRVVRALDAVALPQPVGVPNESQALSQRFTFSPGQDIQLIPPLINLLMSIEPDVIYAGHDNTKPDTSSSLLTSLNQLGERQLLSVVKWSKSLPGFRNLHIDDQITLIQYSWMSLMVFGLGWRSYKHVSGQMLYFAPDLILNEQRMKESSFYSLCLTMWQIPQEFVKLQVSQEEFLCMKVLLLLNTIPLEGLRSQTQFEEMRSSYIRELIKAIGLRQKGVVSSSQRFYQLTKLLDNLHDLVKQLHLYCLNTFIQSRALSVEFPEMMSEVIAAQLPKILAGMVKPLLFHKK

Another assay deals with D(3) dopamine receptor (Homo sapiens, UniProt P35462).
D(3) dopamine receptor, sequence (P35462 whole entry): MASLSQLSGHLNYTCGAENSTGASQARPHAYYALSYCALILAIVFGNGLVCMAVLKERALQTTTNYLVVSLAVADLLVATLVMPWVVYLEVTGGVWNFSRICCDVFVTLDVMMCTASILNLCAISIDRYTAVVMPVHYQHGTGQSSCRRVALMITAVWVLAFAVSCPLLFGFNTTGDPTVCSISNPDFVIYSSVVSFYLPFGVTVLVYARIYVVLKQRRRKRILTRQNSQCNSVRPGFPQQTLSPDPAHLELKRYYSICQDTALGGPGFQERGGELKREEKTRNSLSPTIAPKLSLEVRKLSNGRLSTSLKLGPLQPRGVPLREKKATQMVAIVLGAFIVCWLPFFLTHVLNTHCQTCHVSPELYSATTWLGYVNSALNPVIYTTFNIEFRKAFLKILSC
Assay [8] has as its target cGMP-inhibited 3',5'-cyclic phosphodiesterase 3A (Homo sapiens, UniProt Q14432). It is filed as functional.
A further assay concerns the target T4, Adenosine receptor A3 (Homo sapiens, UniProt P0DMS8).
T4 sequence (P0DMS8 whole entry): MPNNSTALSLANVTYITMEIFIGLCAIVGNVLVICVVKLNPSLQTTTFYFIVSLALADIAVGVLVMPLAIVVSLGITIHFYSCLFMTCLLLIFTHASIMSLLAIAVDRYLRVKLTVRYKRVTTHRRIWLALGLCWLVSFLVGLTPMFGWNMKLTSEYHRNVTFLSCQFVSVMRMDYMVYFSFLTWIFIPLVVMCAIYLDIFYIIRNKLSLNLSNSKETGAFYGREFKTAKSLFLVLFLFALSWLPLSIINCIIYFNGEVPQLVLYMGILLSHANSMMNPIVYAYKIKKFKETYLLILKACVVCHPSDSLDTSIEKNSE
Further: assay procedure not described here.

Voltage-gated inwardly rectifying potassium channel KCNH2, sequence (Q12809 whole entry): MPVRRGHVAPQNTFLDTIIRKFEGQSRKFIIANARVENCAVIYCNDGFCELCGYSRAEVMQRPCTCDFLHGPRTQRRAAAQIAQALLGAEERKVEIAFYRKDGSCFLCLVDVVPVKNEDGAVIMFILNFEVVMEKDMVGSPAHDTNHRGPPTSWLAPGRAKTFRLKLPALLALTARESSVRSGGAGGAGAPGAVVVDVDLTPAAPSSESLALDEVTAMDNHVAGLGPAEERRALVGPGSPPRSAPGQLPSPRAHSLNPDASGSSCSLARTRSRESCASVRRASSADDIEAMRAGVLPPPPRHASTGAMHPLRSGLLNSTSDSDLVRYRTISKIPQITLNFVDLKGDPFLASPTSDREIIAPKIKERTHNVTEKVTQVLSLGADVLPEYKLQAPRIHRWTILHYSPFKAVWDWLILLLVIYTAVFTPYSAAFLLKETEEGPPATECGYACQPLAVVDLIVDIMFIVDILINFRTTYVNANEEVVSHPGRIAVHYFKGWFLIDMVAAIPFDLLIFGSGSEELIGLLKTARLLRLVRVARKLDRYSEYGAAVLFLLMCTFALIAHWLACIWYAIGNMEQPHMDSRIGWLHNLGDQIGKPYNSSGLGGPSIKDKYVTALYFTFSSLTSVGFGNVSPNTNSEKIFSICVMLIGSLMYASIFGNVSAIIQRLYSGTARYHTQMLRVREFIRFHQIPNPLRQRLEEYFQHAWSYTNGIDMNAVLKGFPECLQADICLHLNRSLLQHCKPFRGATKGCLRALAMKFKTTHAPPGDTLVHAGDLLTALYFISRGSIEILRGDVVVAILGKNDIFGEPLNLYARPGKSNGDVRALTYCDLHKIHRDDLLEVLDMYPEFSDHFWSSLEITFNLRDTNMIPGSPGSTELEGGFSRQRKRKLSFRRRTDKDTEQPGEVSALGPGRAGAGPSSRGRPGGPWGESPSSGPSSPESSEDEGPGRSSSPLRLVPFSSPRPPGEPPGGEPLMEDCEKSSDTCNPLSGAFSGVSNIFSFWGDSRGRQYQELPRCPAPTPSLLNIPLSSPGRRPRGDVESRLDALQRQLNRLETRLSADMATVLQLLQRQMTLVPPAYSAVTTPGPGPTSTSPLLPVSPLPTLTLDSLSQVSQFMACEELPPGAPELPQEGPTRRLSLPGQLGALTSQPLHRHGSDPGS
cGMP-inhibited 3',5'-cyclic phosphodiesterase 3A, sequence (Q14432 whole entry): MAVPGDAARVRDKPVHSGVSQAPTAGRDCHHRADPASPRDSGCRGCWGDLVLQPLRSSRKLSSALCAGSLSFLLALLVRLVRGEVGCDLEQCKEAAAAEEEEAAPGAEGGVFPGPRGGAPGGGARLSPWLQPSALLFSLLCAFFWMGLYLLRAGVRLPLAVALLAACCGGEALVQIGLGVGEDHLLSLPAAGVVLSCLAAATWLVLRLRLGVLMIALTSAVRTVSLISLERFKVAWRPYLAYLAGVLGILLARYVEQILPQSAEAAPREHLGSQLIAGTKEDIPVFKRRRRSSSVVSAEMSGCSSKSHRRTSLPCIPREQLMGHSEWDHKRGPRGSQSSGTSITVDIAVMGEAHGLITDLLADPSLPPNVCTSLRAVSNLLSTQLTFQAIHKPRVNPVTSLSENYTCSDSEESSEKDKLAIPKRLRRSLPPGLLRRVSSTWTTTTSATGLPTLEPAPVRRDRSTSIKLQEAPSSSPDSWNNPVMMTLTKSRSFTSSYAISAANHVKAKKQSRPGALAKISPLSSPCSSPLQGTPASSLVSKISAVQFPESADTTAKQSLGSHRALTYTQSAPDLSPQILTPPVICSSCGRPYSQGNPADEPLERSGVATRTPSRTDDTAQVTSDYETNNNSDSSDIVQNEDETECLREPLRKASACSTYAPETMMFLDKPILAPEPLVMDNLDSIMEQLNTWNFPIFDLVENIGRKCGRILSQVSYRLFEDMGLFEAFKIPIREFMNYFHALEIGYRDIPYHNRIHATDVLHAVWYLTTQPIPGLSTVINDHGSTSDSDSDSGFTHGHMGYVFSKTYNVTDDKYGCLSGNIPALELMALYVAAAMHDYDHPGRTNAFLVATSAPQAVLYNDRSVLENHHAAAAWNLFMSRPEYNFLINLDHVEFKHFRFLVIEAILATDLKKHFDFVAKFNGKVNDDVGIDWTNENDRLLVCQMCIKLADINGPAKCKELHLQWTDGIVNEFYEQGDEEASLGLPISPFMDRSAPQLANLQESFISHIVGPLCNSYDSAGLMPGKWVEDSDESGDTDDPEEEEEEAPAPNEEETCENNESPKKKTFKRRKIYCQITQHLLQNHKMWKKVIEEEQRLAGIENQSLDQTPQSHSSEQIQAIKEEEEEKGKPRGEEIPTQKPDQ

A word on the AC50: it is the concentration at which the activity in the assay is half-maximal. On to `CC1(C)C[C@@H]1C(=O)N/C(=C\CCCCSC[C@H](N)C(=O)O)C(=O)O` [CILASTATIN], for which the AC50 in assay [1], in assay [2], in assay [3], in assay [4], in assay [5] and in [6] was greater than 30 µM in each case. The AC50 (on Prothrombin; in [7]; on Progesterone receptor; on D(3) dopamine receptor; in [8]) was greater than 30 µM each time.
Take `CCn1c(=O)c2c(nc(/C=C/c3ccc(OC)c(OC)c3)n2C)n(CC)c1=O` [ISTRADEFYLLINE]: the concentration at half-maximal activity (AC50) in [1] was greater than 30 µM; on Adenosine receptor A3, greater than 10 µM; in [2], greater than 30 µM; in [3] it was greater than 30 µM; in assay [4], greater than 30 µM; in [5], greater than 30 µM. Also, the AC50 in assay [6] was 2.77 µM; in assay [7] it was greater than 10 µM; at Progesterone receptor, greater than 30 µM; in [8], greater than 30 µM.
For the molecule `CC(=O)Nc1ccc(/C=N/NC(N)=S)cc1` [AMITHIOZONE], the AC50 (in assay [2]; in [3]; in [4]; in assay [5]; in [6]; at Prothrombin) was greater than 30 µM each time. For the same molecule, the AC50 (in assay [7]; on Progesterone receptor; on D(3) dopamine receptor; in assay [8]) was greater than 30 µM throughout.
Take `COc1ccc(C(=O)c2ccccc2)c(O)c1` [OXYBENZONE]: the AC50 was greater than 30 µM in [1]; greater than 30 µM in [2]; greater than 30 µM in assay [3]; greater than 30 µM in assay [4]; greater than 30 µM in [5]; 18.1 µM in assay [6]. Further, the AC50 on Prothrombin was greater than 30 µM; in [7] it was greater than 30 µM; at Progesterone receptor, 25.7 µM; on D(3) dopamine receptor, greater than 30 µM; in assay [8], greater than 30 µM.
Take `OC(CN1CCCCC1)c1cc(-c2ccccc2)on1` (configuration not stated) [PERISOXAL]: the AC50 in [2] is greater than 30 µM; in assay [3], 16.9 µM; in assay [4], greater than 30 µM; in [5], greater than 30 µM; in assay [6], greater than 30 µM; at Prothrombin, greater than 30 µM. The AC50 was greater than 30 µM in [7], greater than 30 µM on Progesterone receptor, 15.2 µM on D(3) dopamine receptor and greater than 30 µM in assay [8].
For the molecule `CC(=O)OC1CN2CCC1CC2` (configuration not stated) [ACECLIDINE], the AC50 (in assay [2]; in assay [4]; in [5]; in assay [6]; at Prothrombin; in assay [7]) was greater than 30 µM each time. The AC50 (at Progesterone receptor; at D(3) dopamine receptor; in assay [8]) was greater than 30 µM throughout.
Regarding `Cc1ccc(O)c([C@H](CCN(C(C)C)C(C)C)c2ccccc2)c1` [TOLTERODINE], the AC50 in assay [2] was 20.3 µM; in assay [4] it was greater than 30 µM; in assay [7] it was greater than 30 µM; on D(3) dopamine receptor, greater than 30 µM.
With `O=C(OOC(=O)c1ccccc1)c1ccccc1` [BENZOYL PEROXIDE], the AC50 in assay [1], in [2], in assay [3], in assay [4], in [5] and in assay [6] was greater than 30 µM throughout. For the same molecule, the AC50 on Prothrombin is 9.02 µM; in [7], greater than 30 µM; at Progesterone receptor, greater than 30 µM; on D(3) dopamine receptor, greater than 30 µM; in [8] it was greater than 30 µM.
In the case of `COc1c(OCCCN2CCOCC2)ccc2c1N=C(NC(=O)c1cnc(N)nc1)N1CCN=C21` [COPANLISIB], the AC50 is greater than 30 µM in assay [2]; 5.64 µM in assay [3]; greater than 30 µM in [4]; greater than 30 µM in assay [5]; greater than 30 µM in assay [6]; greater than 30 µM at Prothrombin. Also, the AC50 (in [7]; at Progesterone receptor; on D(3) dopamine receptor; in [8]) was greater than 30 µM each time.
In the case of `C[C@@H](O)[C@H]1C(=O)N2C(C(=O)O)=C(S[C@@H]3CN[C@H](C(=O)Nc4cccc(C(=O)O)c4)C3)[C@H](C)[C@H]12`, the AC50 in [2] was greater than 30 µM; in assay [3] it was greater than 30 µM; in [4] it was greater than 30 µM; in [5] it was 19.9 µM; in [6] it was 1.62 µM; on Prothrombin it was greater than 30 µM. The AC50 (in assay [7]; on Progesterone receptor; at D(3) dopamine receptor; in assay [8]) was greater than 30 µM each time.
As to `CSCC[C@H](N)C(=O)O` [METHIONINE], the AC50 (in [2]; in assay [3]; in assay [4]; in assay [5]; in assay [6]; on Prothrombin) was greater than 30 µM throughout. The AC50 (in [7]; on Progesterone receptor; on D(3) dopamine receptor; in [8]) was greater than 30 µM each time.
Regarding `CC(=O)O[C@]1(C(C)=O)CC[C@H]2[C@@H]3CCC4=CC(=O)CCC4=C3[C@@H](c3ccc(N(C)C)cc3)C[C@@]21C` [ULIPRISTAL ACETATE], the AC50 (in assay [2]; in assay [3]; in [4]; in assay [5]; in [6]; at Prothrombin) was greater than 30 µM in each case. The AC50 in assay [7] is greater than 30 µM; on Progesterone receptor, 0.003 µM; at D(3) dopamine receptor, greater than 30 µM; in [8] it was greater than 30 µM.
As for `CC(C)(C)NCC(O)COc1ccccc1C#N` (configuration not stated) [BUNITROLOL], the AC50 in assay [1], in [2], in assay [3], in assay [4], in [5] and in assay [6] was greater than 30 µM in each case. Besides, the AC50 on Prothrombin was greater than 30 µM; in assay [7], 27.1 µM; on Progesterone receptor, greater than 30 µM; on D(3) dopamine receptor it was greater than 30 µM; in assay [8], greater than 30 µM.
